Earlier results in US20260373193A1, “CARCINOGENESIS REDUCTION WITH PENTAAZA MACROCYLIC RING COMPLEX” (GALERA LABS, LLC, priority 2023, published 2026).

Columns and labels:
[1] = system: acute and sub-chronic radiation damage; platinum therapy kidney damage; conditions: mucositis, pulmonary pneumonitis and fibrosis, liver damage; cited from earlier work
established tumors = conditions: cited from earlier work
colon of rats = conditions: experimental colitis; cited from earlier work
[2] = system: radiation-induced oral mucositis; conditions: hamster; cited from earlier work
radiation damage = conditions: adult mice; cited from earlier work
inflammation = conditions: rat; cited from earlier work
[3] = system: collagen-induced arthritis; conditions: rat collagen-induced arthritis; cited from earlier work

| SMILES | overt acute and sub-chronic radiation damage; platinum therapy kidney damage [1] | efficacy of radiation and other therapies (established tumors) | injury to the colon (colon of rats) | radiation-induced oral mucositis [2] | radiation damage, lethal total body irradiation (radiation damage) | inflammation (inflammation) | joint disease [3] |
| --- | --- | --- | --- | --- | --- | --- | --- |
| CCC(=O)[O-].CCC(=O)[O-].[Mn+2].c1cc2nc(c1)CN[C@H]1CCCC[C@@H]1NCCN[C@H]1CCCC[C@@H]1NC2 [GC4711] | reduce overt acute and sub-chronic radiation damage | enhance the efficacy of radiation and other therapies |  |  |  |  |  |
| [Cl-].[Cl-].[Mn+2].c1cc2nc(c1)CN[C@@H]1CCCC[C@H]1NCCN[C@@H]1CCCC[C@H]1NC2 [GC4403] | reduce overt acute and sub-chronic radiation damage | enhance the efficacy of radiation and other therapies | very significantly reduce the injury to the colon of rats | attenuate the radiation damage | attenuate the radiation damage | inhibit inflammation | prevent joint disease |
